Data taken from patent US20260327239A1, “COMPOUNDS FOR COVALENT INHIBITION OF SHP2” (Purdue Research Foundation, priority 2023, published 2026).
Entries after “also recorded” stand apart in the source; their conditions may differ.

Tests used:
[1] = target: T1, SHP2 (residues 224-528) (Homo sapiens, UniProt Q06124); assay: Kinetic characterization of SHP2 inactivation (pNPP cleavage progress curves, kobs, kinact/KI); format: biochemical
T1 construct: 4× solution of SHP2 (residues 224-528)
T1 sequence (Q06124 224-528): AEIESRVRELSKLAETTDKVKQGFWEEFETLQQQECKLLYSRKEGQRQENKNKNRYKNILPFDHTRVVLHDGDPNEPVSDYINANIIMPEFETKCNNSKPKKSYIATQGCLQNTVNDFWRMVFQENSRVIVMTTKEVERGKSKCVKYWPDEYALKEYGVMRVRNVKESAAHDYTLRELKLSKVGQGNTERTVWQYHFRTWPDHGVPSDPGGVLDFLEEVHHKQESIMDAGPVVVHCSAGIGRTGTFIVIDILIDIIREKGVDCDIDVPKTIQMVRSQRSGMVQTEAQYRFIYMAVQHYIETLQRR
Excerpt: Covalent inhibitors work by forming a covalent bond with a reactive functional group in the target enzyme. Consequently, the kinetics for enzyme inactivation by a covalent inhibitor is not an equilibrium process as with reversible inhibition. The potency of a reversible inhibitor can be measured by its IC50 value. Unlike reversible inhibitors, where inhibition is only concentration-dependent, covalent inhibitors show both time- and concentration-dependent target inhibition (a covalent bond formation is a time-dependent event). If sufficient time is available, covalent inhibitors can completely neutralize the target, rather than go to equilibrium. As a result, the potency and selectivity of a covalent inhibitor cannot be determined by IC50 values; instead, the rate of inactivation of the target (kinact) and the inhibition constant (KI) were determined. The bimolecular rate constant (kinact/KI), was chosen to rank the potency of covalent inhibitors (Ruddraraju et al., 2017, Molecular Biosystems 13(7), 1257-1279).
PTPs catalyze the dephosphorylation of tyrosine-phosphorylated protein substrates through a conserved mechanism that relies on a catalytic cysteine residue (Zhang, Z.-Y et al., 2003, Prog. Nucleic Acid Research Molecular Biology, 73, 171-220). This provides a mechanistic rationale for the assessment of electrophilic Michael acceptors, such as those synthesized in the present disclosure as potential covalent inhibitors of the SHP2. The enzymatic cleavage of para-nitrophenyl phosphate by SHP2 was measured over time in the presence of 100 μM inhibitor or DMSO, to determine the observed first-order rate constant (kobs). Based on kobs values, compounds were further evaluated in a dose-dependent manner to determine the second-order rate constant (kinact/KI) indicating the overall efficacy of the compounds, which was used to assess the structure-activity relationship (SAR) for the analogs of interest and design additional analogs (see Table 1). […] It has been known that modifications to the electronegativity of substituents proximal to electrophilic centers alter the reactivity of the electrophile.
The efficacy of covalent inhibitors can be broken down into the initial reversible binding of the compounds (KI), and the rate of covalent bond formation and enzyme inactivation (kinact). These two constants can be used individually, or as a ratio to determine the overall efficacy of the inhibitor's efficacy. To investigate the contribution to reversible binding compound (34) was evaluated, which lacks the carbonyl of the Michael acceptor to prevent the formation of a covalent adduct.
Inhibitors were evaluated for their ability to inhibit the reaction catalyzed by SHP2 using para-nitrophenyl phosphate (pNPP) as a substrate at pH 7 and 25° C. A 2× solution of inhibitor was diluted into DMG buffer (50 mM 3,3-dimethylglutarate pH 7.0, 1 mM EDTA, ionic strength adjusted to 150 mM using NaCl) was added to a clear flat-bottom 96-well plate (Corning Costar Assay Plate #9017), and serially diluted 1.5-fold, resulting in 100 μL volumes of varying inhibitor concentrations. To this was added a 4× solution of pNPP (12 mM) in DMG buffer. The reaction was initialized by the addition of a 4× solution of SHP2 (residues 224-528), resulting in a final solution of: inhibitor (100-0 μM), pNPP (3 mM), and SHP2 (100 nM). The plate was then monitored for a change in absorbance ab […] using a CLARIOstar^Plus plate reader (BMG Labetch) over the course of an hour. The resulting progress curves for each inhibitor were imported into Graphpad Prism 9 (GraphPad Software, San Diego, CA (USA)), and a baseline correction analysis was completed for fitting purposes. Each curve was fit to the equation Y=V0×(1−e^−kobs*t)/kobs.^[17.22] The kobs values were then plotted against inhibitor concentrations. If the resulting graph was linear, the kinact/KI value was determined by the slope of that line and the 95% confidence interval (95% CI). […]

[2] = target: T2, SHP2 (Homo sapiens, UniProt Q06124); assay: Covalent adduct formation on SHP2 by intact protein LC-MS; format: binding; conditions: 10 μM SHP2, 60 minutes
T2 construct: 4× solution of SHP2 (residues 224-528)
T2 sequence (Q06124 224-528): T1 sequence (Q06124 224-528)
Experimental: To validate covalent modification of SHP2 by the active compounds, adduct formation on SHP2 was measured by intact protein liquid chromatography-mass spectrometry (LC-MS). With intact protein LC-MS, multiply charged states of the protein species can be deconvoluted to achieve the total mass(es). Compounds were incubated with 10 μM SHP2 for 60 minutes before being quenched with acetonitrile for LC-MS analysis by electrospray ionization (ESI) in positive mode. […] (33), and (42) (FIGS. 3A and 3B).
To unfold protein and quench protein-ligand reactivity, 10 μL of treated or untreated 10 μM SHP2 was diluted in 40 μL of 80% (v/v) formic acid initially, followed by 150 μL of LC-MS buffer (50/50 water/acetonitrile with 0.1% formic acid). 20-25 pmol per sample was analyzed by LC/MS (Agilent 1260 Infinity II with a ZORBAX Rapid Resolution High Definition 300 Å Stable Bond C3, 2.1×100 mm, 1.8 μm column) attached to an Agilent 6129 quadrupole mass spectrometer in positive ion mode. The column was held at 45° C. Mobile solution A was 0.1% formic acid in water, and mobile phase B was 0.1% formic acid in acetonitrile. The gradient used was hold at 10% B for 5 min, increase linearly to 80% B for 15 min, and then hold at 80% B for 5 min. The mass data were collected at a range of 600-1500 m/z. Raw data were processed using MestReNova. For all samples, the deconvoluted mass was calculated by taking the m/z range of 730-1100 Da, and deconvoluted mass range from 36500-37200 Da. An abundance threshold of 10% and tolerance of 30 ppm was set for deconvolution. Unreacted SHP2's total deconvoluted mass was 36602±10 Da; for each deconvolution, the highest deconvoluted mass intensity was utilized as the mass pivot point to determine and identify reacted SHP2 adducts. To calculate the percent SHP2 reacted, the relative abundance intensity of reacted SHP2 was divided by the total relative abundance intensities of unreacted and reacted SHP2.

[3] = target: T2, SHP2; assay: Active site protection by vanadate (jump-dilution assay); format: biochemical; conditions: role: inhibitor, 10 min, diluted 100-fold into 10 mM pNPP
Experimental: To further support a covalent mechanism of action and engagement of the SHP2 active site, a jump-dilution assay was employed both in the presence and absence of the known reversible PTP active site competitive inhibitor vanadate (VO4) (Seiner, D. R. et al., Chem. Res. Toxicol. 2007, 20, 1315-1320) In this experiment, SHP2 was co-incubated with 100 μM compound (10) and 500 μM vanadate or DMSO for 10 minutes. The enzyme-inhibitor complex was then rapidly diluted 100-fold into a buffered solution containing 10 mM pNPP, and the absorbance at 405 nm was immediately monitored over time to determine the remaining enzymatic activity.
A solution containing 500 μM Vanadate or DMSO, 4 μM SHP2, and 100 μM (10) or DMSO in DMG buffer (with no EDTA) was added to a clear flat-bottom 96-well plate (Corning Costar Assay Plate #9017). This was allowed to incubate for 10 minutes at 25° C. before transferring 3 μL to a new clear flat-bottom 96-well plate (Corning Costar Assay Plate #9017). To each well was added 297 μL of 10.1 mM pNPP in DMG buffer (with EDTA) and the plate Plates were then read for absorbance at 405 nm using a CLARIOstar^Plus plate reader (BMG Labetch). Data was imported into Graphpad Prism 9 (GraphPad Software, San Diego, CA (US)), and a baseline correction analysis was completed for fitting purposes.

Structure (SMILES) | kinact/KI ([1]; pH 7, role: inhibitor, substrate pNPP 3 mM, 100 nM SHP2, pH 7.0, 25° C, read-out: kinact/KI (converted)) | fold increase in efficacy compared to PVSN ([1]; role: inhibitor, kinact/KI relative to PVSN) | Found Ligand Adduct (mass shift) ([2]; intact protein LC-MS) | % SHP2 Reacted (overall adduct formation) ([2]; PVSN at 20 μM, compound 37 at 10 μM) | residual SHP2 activity after jump-dilution ([3]; 100 μM compound (10) alone) | residual SHP2 activity after jump-dilution with vanadate ([3]; 100 μM compound (10) with 500 μM vanadate (competitive inhibitor)) | SHP2 activity recovery after jump-dilution, vanadate alone ([3]; 500 μM vanadate, compared to DMSO control)
C=C1C(=O)[C@@]2(C(=O)OC)CC(=O)C[C@@H]1C2 [Compound 10] | 20.5 M⁻¹ s⁻¹ | approximately 6 fold | 206 Da | 34% | negligible residual enzymatic activity; also recorded: Little residual activity was detected | substantial residual activity; also recorded: protected from inactivation | 
[O]=[V]([O-])([O-])[O-] [vanadate, reference compound] |  |  |  |  |  |  | fully recovered activity
